The values below come from paper PMC8040043, “Synthesis, Inhibitory Activity, and In Silico Modeling of Selective COX-1 Inhibitors with a Quinazoline Core” (ACS Medicinal Chemistry Letters, 2021).

The target of one assay is T1, Ovine COX-1 (Ovis aries, UniProt P05979).
T1 construct: purchased Sigma-Aldrich
T1 sequence (P05979 25-600): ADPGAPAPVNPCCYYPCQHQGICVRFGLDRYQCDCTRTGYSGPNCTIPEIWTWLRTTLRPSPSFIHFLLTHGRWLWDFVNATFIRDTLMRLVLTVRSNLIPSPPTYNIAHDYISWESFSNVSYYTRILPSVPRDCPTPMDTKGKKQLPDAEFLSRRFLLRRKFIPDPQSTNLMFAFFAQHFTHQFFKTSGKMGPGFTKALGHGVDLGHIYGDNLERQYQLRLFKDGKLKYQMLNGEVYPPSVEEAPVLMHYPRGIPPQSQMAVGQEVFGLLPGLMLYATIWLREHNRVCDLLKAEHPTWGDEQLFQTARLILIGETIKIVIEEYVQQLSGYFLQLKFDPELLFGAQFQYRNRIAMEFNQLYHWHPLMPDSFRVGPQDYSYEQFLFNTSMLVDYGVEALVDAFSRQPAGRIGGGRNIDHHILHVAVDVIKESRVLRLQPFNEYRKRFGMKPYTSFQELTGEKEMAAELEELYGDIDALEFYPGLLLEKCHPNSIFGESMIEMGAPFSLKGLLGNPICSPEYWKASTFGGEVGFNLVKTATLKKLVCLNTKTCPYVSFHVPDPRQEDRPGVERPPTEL
Nature of the assay: COX-1 in vitro enzymatic assay (PGE2 ELISA). The settings on record: for inhibition at 20 µM: compound at 20 μM; for inhibitory activity in COX assays (in words): less than 50% inhibition on both COX isoforms considered inactive; for selectivity index (COX-2/COX-1): ratio of IC50 COX-2 / IC50 COX-1. In kind it is biochemical. On the procedure: (§1) The inhibitory activity of compounds was tested using in vitro enzymatic assay. Ovine COX-1 (1 unit/reaction) or human recombinant COX-2 (0.5 unit/reaction; both enzymes Sigma-Aldrich, USA) was added to 180 µL of 100 mM Tris buffer (pH 8.0), containing 5 μM porcine hematin, 18 mM L-epinephrine, and 50 μM Na2EDTA. Ten µL of tested compound dissolved in DMSO or pure DMSO (as a blank) were added to the reaction.
(§2) Sigma-Aldrich, USA) was used as a reference inhibitor. After 5 min incubation at room temperature, reaction was initiated by 5 µL of arachidonic acid (10 µM) and incubated 20 min in 37°C. Then the reaction was stopped by 20 µL of formic acid (10% v/v). The concentration of prostaglandin E2 (PGE2) was measured with Prostaglandin E2 ELISA kit (Enzo Life Sciences, USA). Reaction mixture was diluted 1:15 in assay buffer (provided in the kit) and incubated according to the manufacturer instructions.
(§3) The concentration of PGE2 produced during the reaction was estimated according to absorbance […]
(§4) inhibitory activity was calculated as percentual inhibition of PGE2 production compared to blank. At first, the inhibitory activity of compounds was tested at 20 µM to see if there is any activity. IC50 […]
(§5) of COX-2. The level of percentual inhibition was chosen based on the percentual inhibition caused by […]
(§6) All the experiments were carried out in duplicates and repeated at least two times. To test whether increasing substrate concentration influences the activity of […]
(§7) reference compound. The inhibitory activity was calculated as percentual inhibition of PGE2 production compared to blank with respective concentration of AA. […]
On the technique in general: ELISA stands for enzyme-linked immunosorbent assay.

A further assay concerns the target T2, human recombinant COX-2 (Homo sapiens, UniProt P35354).
T2 construct: purchased Sigma-Aldrich
T2 sequence (P35354 18-604): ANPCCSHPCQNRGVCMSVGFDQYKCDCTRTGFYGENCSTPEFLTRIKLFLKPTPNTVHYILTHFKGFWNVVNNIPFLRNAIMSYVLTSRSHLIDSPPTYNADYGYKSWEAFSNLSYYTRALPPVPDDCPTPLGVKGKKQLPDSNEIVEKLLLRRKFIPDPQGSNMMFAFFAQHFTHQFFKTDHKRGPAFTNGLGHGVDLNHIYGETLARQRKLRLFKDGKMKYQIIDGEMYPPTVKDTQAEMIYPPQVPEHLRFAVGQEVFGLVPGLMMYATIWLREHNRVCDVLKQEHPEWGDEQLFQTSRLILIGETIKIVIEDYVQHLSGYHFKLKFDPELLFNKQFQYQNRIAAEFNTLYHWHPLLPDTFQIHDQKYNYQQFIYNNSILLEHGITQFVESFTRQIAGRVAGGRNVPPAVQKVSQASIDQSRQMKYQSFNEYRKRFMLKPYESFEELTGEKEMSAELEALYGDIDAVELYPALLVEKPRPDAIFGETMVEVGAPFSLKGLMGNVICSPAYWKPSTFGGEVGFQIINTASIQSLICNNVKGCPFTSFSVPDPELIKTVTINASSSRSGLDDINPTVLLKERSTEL
Briefly: COX-2 in vitro enzymatic assay (PGE2 ELISA). It counts as biochemical. To be noted: for inhibition at 20 µM: compound at 20 μM; for inhibition of COX-2 (in words): at 50 μM. As for the experimental part: as §1, §2, §3, §4, §5, §6, §7

What is called inhibition is the drop in the measured response relative to a control, in per cent. On to `O=[N+]([O-])c1ccc(Nc2nc(/C=C/c3ccccc3)nc3ccccc23)cc1` [3g], for which the inhibition at 20 µM against Ovine COX-1 is 13.7%; on human recombinant COX-2 it was -24.4%.
In the same order, the values of `Cc1cc(F)cc(Br)c1Nc1nc(/C=C/c2ccccc2)nc2ccccc12` [3r] are 30.6% and -1.77%.
As to `COc1ccc(CNc2nc(N3CCOCC3)nc3cc(-c4cccs4)ccc23)cc1` [7i], the results for the inhibition at 20 µM at Ovine COX-1 and on human recombinant COX-2 were 14.8% and -5.36%, respectively. The “inhibitory activity in COX assays (in words)” value at Ovine COX-1 was “inactive”.
In general, IC50 refers to the point on the concentration scale where inhibition reaches its midpoint. In the case of `Cc1ccc(Nc2nc(/C=C/c3ccccc3)nc3cc(Br)ccc23)cc1` [8a], the inhibition at 20 µM at Ovine COX-1 stood at 82.2%. At human recombinant COX-2, the IC50 is more than 50 µM and the inhibition at 20 µM turned out to be 27.5%.
With `C(=C\c1nc(Nc2cccc3cccnc23)c2ccccc2n1)/c1ccccc1` [3h], the results for the inhibition at 20 µM at Ovine COX-1 and on human recombinant COX-2 were 31.5% and 3.02%, respectively.
For `COc1ccc(CNc2nc(N3CCCC3)nc3cc(-c4cccs4)ccc23)cc1` [7j], on Ovine COX-1, the inhibition at 20 µM is -38.1% and the “inhibitory activity in COX assays (in words)” value is “inactive”. Further, at human recombinant COX-2, the inhibition at 20 µM was -2.17%.
Consider `COc1ccc(CNc2nc(Cl)nc3cc(-c4ccc(OC)cc4)ccc23)cc1` [6a], for which the inhibition at 20 µM amounted to 34.1% against Ovine COX-1 and 7.04% at human recombinant COX-2.
In the same order, the values of `CCN(CC)c1nc(NCc2ccc(OC)cc2)c2ccc(-c3ccc(F)cc3)cc2n1` [7h] are -1.12% and 4.43%.
For the molecule `COc1ccc(CNc2nc(Cl)nc3cc(-c4cccs4)ccc23)cc1` [6c], the inhibition at 20 µM against Ovine COX-1 was 92.4%. Besides, on human recombinant COX-2, the IC50 was more than 50 µM, the “inhibition of COX-2 (in words)” value is given as “did not inhibit” and the inhibition at 20 µM came out at 32.3%.
In the case of `Fc1ccc(CNc2nc(Cl)nc3cc(Br)ccc23)cc1F` [5b], the figures for the inhibition at 20 µM against Ovine COX-1 and on human recombinant COX-2 were 30.4% and 30.6%, respectively.
In the same order, the values of `Fc1ccc(Nc2nc(/C=C/c3ccccc3)nc3ccccc23)cc1F` [3f] are 27.6% and -14.5%.
On to `COc1ccc(CNc2nc(Cl)nc3cc(Br)ccc23)cc1` [5a], for which the inhibition at 20 µM against Ovine COX-1 was 48.8%; at human recombinant COX-2, 22.7%.
As for `Fc1ccc(CNc2nc(/C=C/c3ccccc3)nc3cc(Br)ccc23)cc1F` [8b], at Ovine COX-1, the IC50 is 1.58 ± 0.89 µM, the inhibition at 20 µM turned out to be 84.7% and the “selectivity index (COX-2/COX-1)” value is on record as “COX-1-selective”. Besides, at human recombinant COX-2, the IC50 is more than 50 µM and the inhibition at 20 µM was found to be 21.5%.
On to `CCCCc1ccc(Nc2nc(/C=C/c3ccccc3)nc3ccccc23)cc1` [3n], for which the inhibition at 20 µM came to 12.8% against Ovine COX-1 and 5.59% on human recombinant COX-2.
In the same order, the values of `COc1ccc(CNc2nc(N3CCCC3)nc3cc(-c4ccc(F)cc4)ccc23)cc1` [7f] are 32.1% and 3.22%.
In the same order, the values of `COc1ccc(CNc2nc(N3CCCC3)nc3cc(-c4ccc(OC)cc4)ccc23)cc1` [7b] are 6.91% and 19.4%.
In the same order, the values of `COc1ccc(-c2ccc3c(NCc4ccc(F)c(F)c4)nc(N4CCNCC4)nc3c2)cc1` [7m] are -6.25% and 11.7%.
Consider `Cc1cc(C)c(Nc2nc(/C=C/c3ccccc3)nc3ccccc23)c(C)c1` [3p], for which the figures for the inhibition at 20 µM against Ovine COX-1 and on human recombinant COX-2 were 38% and -22.9%, respectively.
In the same order, the values of `COc1ccc(-c2ccc3c(NCc4ccc(F)c(F)c4)nc(N4CCCC4)nc3c2)cc1` [7l] are -23.6% and 8.82%.
For `Fc1ccc(CNc2nc(/C=C/c3ccccc3)nc3ccccc23)cc1F` [3k], on Ovine COX-1, half-maximal inhibition (IC50) required 1.9 ± 0.69 µM, the inhibition at 20 µM came to 96.8% and the “selectivity index (COX-2/COX-1)” value is listed as 5.32. Besides, on human recombinant COX-2, the IC50 is 10.1 ± 1.38 µM and the inhibition at 20 µM is 71.8%.
On to `C(=C\c1nc(N2CCNCC2)c2ccccc2n1)/c1ccccc1` [3d], for which the inhibition at 20 µM at Ovine COX-1 is 31.2%; at human recombinant COX-2, -4.94%.
For `Cc1ccc(Nc2nc(/C=C/c3ccccc3)nc3ccccc23)cc1C` [3a] the same measures were 50.5% and -38.7%.
`Cc1ccc(Nc2nc(/C=C/c3ccccc3)nc3ccccc23)cc1` [3b]: the figures for the inhibition at 20 µM against Ovine COX-1 and at human recombinant COX-2 were 95.2% and 3.54%, respectively. At human recombinant COX-2, the IC50 came out at 43 ± 10.3 µM.
Take `COc1ccc(CNc2nc(N3CCNCC3)nc3cc(-c4ccc(OC)cc4)ccc23)cc1` [7c]: the inhibition at 20 µM was -16.5% at Ovine COX-1 and 24.2% on human recombinant COX-2.
On to `Nc1ccc(Oc2nc(/C=C/c3ccccc3)nc3ccccc23)cc1` [3v], for which the inhibition at 20 µM on Ovine COX-1 was determined as 94.3%. Further, at human recombinant COX-2, the IC50 is more than 50 µM, the “inhibition of COX-2 (in words)” value is listed as “did not inhibit” and the inhibition at 20 µM came out at 3.5%.
Turning to `Cc1cc(Nc2nc(/C=C/c3ccccc3)nc3ccccc23)n[nH]1` [3j], the inhibition at 20 µM against Ovine COX-1 came out at 41.6%; on human recombinant COX-2, 13.8%.
In the same order, the values of `CCOC(=O)c1ccc(Nc2nc(/C=C/c3ccccc3)nc3ccccc23)cc1` [3e] are 6.76% and -16.3%.
For `COc1ccc(CNc2nc(N3CCOCC3)nc3cc(-c4ccc(F)cc4)ccc23)cc1` [7e] the same measures were -5.92% and -7.39%.
In the same order, the values of `COC(=O)CCNc1nc(/C=C/c2ccccc2)nc2ccccc12` [3l] are 46.2% and 14.9%.
With `CCCOc1ccc(Nc2nc(/C=C/c3ccccc3)nc3ccccc23)cc1` [3o], the inhibition at 20 µM on Ovine COX-1 was 7.33%; at human recombinant COX-2 it was -4.79%.
Turning to `COc1ccc(-c2ccc3c(NCc4ccc(F)c(F)c4)nc(Cl)nc3c2)cc1` [6d], the results for the inhibition at 20 µM at Ovine COX-1 and on human recombinant COX-2 were 31.6% and 26.5%, respectively.
For `COc1ccc(CNc2nc(N3CCNCC3)nc3cc(-c4ccc(F)cc4)ccc23)cc1` [7g] the same measures were -13.9% and -10.1%.
For `COc1ccc(-c2ccc3c(NCc4ccc(F)c(F)c4)nc(N4CCOCC4)nc3c2)cc1` [7k] the same measures were 6.66% and 7.98%.
Consider `Fc1ccc(CNc2nc(N3CCOCC3)nc3cc(-c4cccs4)ccc23)cc1F` [7o], for which the inhibition at 20 µM at Ovine COX-1 was 66%. At human recombinant COX-2, the IC50 was more than 50 µM, the “inhibition of COX-2 (in words)” value is “did not inhibit” and the inhibition at 20 µM was -3.62%.
Consider `FC(F)(F)c1ccc(Nc2nc(/C=C/c3ccccc3)nc3ccccc23)cc1` [3u], for which the figures for the inhibition at 20 µM at Ovine COX-1 and on human recombinant COX-2 were 16.8% and 16.4%, respectively.
For `COc1cc(Nc2nc(/C=C/c3ccccc3)nc3ccccc23)cc(OC)c1` [3s] the same measures were 23.1% and -14.1%.
In the same order, the values of `C(=C\c1nc(Nc2ccccn2)c2ccccc2n1)/c1ccccc1` [3i] are 17.7% and -11.1%.
`CCN(CC)c1nc(NCc2ccc(OC)cc2)c2ccc(-c3ccc(OC)cc3)cc2n1` [7d]: the inhibition at 20 µM was -10.9% against Ovine COX-1 and -1.39% at human recombinant COX-2.
On to `Fc1cc(F)c(Nc2nc(/C=C/c3ccccc3)nc3ccccc23)c(F)c1` [3q], for which the results for the inhibition at 20 µM against Ovine COX-1 and at human recombinant COX-2 were 24.9% and 12.6%, respectively.
